Results on two compounds are retold here after patent US10246481B2, “Bile acid derivatives and methods for synthesis and use” (City of Hope, priority 2016, dated 2019).

The subject of one series is phosphorylated AKT. The series can be described thus: Western blot of AKT phosphorylation in mouse primary hepatocytes from wild-type or fxr-/- mice. Conditions: serum-starved mouse primary hepatocytes, 10 min. A general note: A western blot detects proteins with antibodies after separation by electrophoresis.
Another series deals with FXR target gene SHP. As to the kind of experiment: qPCR analysis of the FXR target gene SHP in HepG2 cells. The series is classed as cell-based, human. Conditions: serum starved HepG2, overnight; 100 μM UDCA, 10 μM 6EUDCA; normalized with 36b4.
The test system of a further series is pAKT S473. The series can be described thus: Western blot of AKT phosphorylation in serum-starved HepG2 cells. Conditions: 10 min. The series is classed as cell-based, human. The protocol:
Cell extracts were used to separate proteins by SDS-PAGE, and Western blot analysis was performed using specific antibodies against phosphorylated AKT and phosphorylated GSK3beta. […] Extracts were analyzed by Western blot using specific antibodies against pAKT S473 (left panel) or pGSK3beta (right panel).
To further investigate the dose dependence of AKT phosphorylation, we treated HepG2 cells with increasing concentrations of 6EUDCA. Serum-starved HepG2 cell extracts were prepared after incubation with different concentrations of 6EUDCA (DMSO/0 M, 1 μM, 3 μM, 10 µM or 30 µM) for 10 min. Extracts were analyzed by Western blot using specific antibodies against pAKT S473 (left panel) or pGSK3beta (right panel).

For the next series, the target named is T1, GST-hFXR (Homo sapiens, UniProt Q96RI1).
T1 sequence (Q96RI1 1-486): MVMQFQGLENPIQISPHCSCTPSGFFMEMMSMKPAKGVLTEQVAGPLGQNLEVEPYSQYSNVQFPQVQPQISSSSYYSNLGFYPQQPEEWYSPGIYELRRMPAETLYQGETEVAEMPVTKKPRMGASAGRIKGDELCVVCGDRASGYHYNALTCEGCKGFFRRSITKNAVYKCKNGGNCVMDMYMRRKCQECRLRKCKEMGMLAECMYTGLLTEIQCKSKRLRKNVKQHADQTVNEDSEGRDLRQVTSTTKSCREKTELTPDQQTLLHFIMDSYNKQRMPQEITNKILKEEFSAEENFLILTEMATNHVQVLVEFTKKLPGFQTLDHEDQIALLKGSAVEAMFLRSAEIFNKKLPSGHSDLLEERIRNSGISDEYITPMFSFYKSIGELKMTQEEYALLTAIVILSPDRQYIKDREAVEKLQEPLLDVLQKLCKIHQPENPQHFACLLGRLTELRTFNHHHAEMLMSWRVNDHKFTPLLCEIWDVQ
Conditions: UDCA 1000, 300 or 100 μM; 6EUDCA 100, 30 or 10 μM; 15 or 25 min.

Turning to `C[C@H](CCC(=O)O)[C@H]1CC[C@H]2[C@@H]3[C@@H](O)C[C@@H]4C[C@H](O)CC[C@]4(C)[C@H]3CC[C@]12C` [UDCA, Ursodeoxycholic acid, reference compound], in the series with phosphorylated AKT, the “phosphorylation of AKT in fxr-/- hepatocytes” value was “not in fxr−/− hepatocytes” and the “phosphorylation of AKT in wild-type hepatocytes” value is “induced phosphorylation of AKT in wild-type hepatocytes”.
As to `CC[C@H]1[C@H](O)[C@@H]2[C@H](CC[C@]3(C)[C@@H]([C@H](C)CCC(=O)O)CC[C@@H]23)[C@@]2(C)CC[C@@H](O)C[C@@H]12` [6EUDCA, 3α, 7β-Dihydroxy-6α-ethyl-5β-cholan-24-oic acid], in the series with FXR target gene SHP, the “induction of the FXR target gene SHP (qPCR)” value is recorded as “neither UDCA nor 6EUDCA could induce the FXR target gene SHP”. Also, the “dose dependence of AKT phosphorylation” value in the series with pAKT S473 (HepG2, 1 μM, 3 μM, 10 μM or 30 μM) is “dose dependent”. Besides, the “induction of AKT phosphorylation” value in the series with pAKT S473 (serum starved HepG2 cells) is “effective in inducing AKT phosphorylation”. In addition, the “binding to FXR in TR-FRET assay (reduction in fluorescence signal of DY246)” value on GST-hFXR is given as “binds FXR with higher affinity”. Also, in the series on phosphorylated AKT, the “phosphorylation of AKT in fxr-/- hepatocytes” value was “not in fxr−/− hepatocytes” and the “phosphorylation of AKT in wild-type hepatocytes” value is on record as “induced phosphorylation of AKT in wild-type hepatocytes”.
